In paper PMC8421423, “Cellular model system to dissect the isoform-selectivity of Akt inhibitors” (Nature Communications, 2021):
Values joined by “and” are separate entries in the source; they are usually repeats but may differ in a detail not shown here. Equal entries are not always repeated. Where two headings read alike, the source gives them in different places.

Key:
[1] = CellTiter-Glo cell viability assay; format: cell-based, murine; details: mouse, parental Ba/F3 cells, CTG, parental, single replicates
Procedure: (§1) On day 0, cells were plated into white 384-well cell culture plates (Greiner Bio-One) using a Multidrop reagent dispenser (Thermo Fisher Scientific) at cell numbers that ensure linear and optimal luminescent signal intensity (Ba/F3myr-Akt1: 600 cells/well, Ba/F3myr-Akt2: 800 cells/well, Ba/F3myr-Akt3: 800 cells/well). […] Cell viability was analyzed on day 4 using the CellTiter-Glo Assay (Promega) as per the manufacturer’s instructions. […] All experimental points were measured in duplicates for each plate and were replicated in at least three plates.

[2] = tested on: parental Ba/F3 cells; assay: CellTiter-Glo cell viability assay; format: cell-based, murine; details: for cell viability: CTG, parental
Procedure: as §1

[3] = tested on: pAkt2; assay: Western blot analysis, PANC1 cells; format: cell-based, human; details: PANC1, 24-h treatment
Procedure: Cells were seeded into six-well tissue culture plates (Sarstedt) (BaF3 myr-Akt1/2/3: 10^6 cells/well, PANC1: 250.000 cells/well). […] Cell lysis was initiated by addition of 100 μL RIPA buffer (Cell Signaling Technology) per well supplemented with phosphatase and protease inhibitor cocktails (Sigma) followed by incubation on ice for 20 min. Cells were then harvested by scraping (PANC1) or centrifugation (BaF3). Whole cell lysates were cleared by centrifugation at 14,000×g/4 °C for 10 min and transferred into fresh, pre-cooled microcentrifuge tubes. Protein concentrations were determined using the Pierce BCA protein assay (Thermo) as per manufacturer’s instructions. Equal amounts of protein were separated by SDS-PAGE and transferred to Immobilon-FL PVDF membranes (Merck Millipore) using Pierce™ 1-step transfer buffer (Thermo) and the Pierce™ Power Blotter (Thermo). Membranes were washed for 5 min with ddH2O, blocked with Intercept®Blocking Buffer TBS (Li-Cor) for 1 h at room temperature, and then incubated with primary antibodies diluted in Intercept®Blocking Buffer TBS overnight at 4 °C with gentle agitation. On the next day, the membranes were washed three times with TBS-T (50 mM Tris, 150 mM NaCl, 0.05 % Tween 20, pH 7.4) for 5 min before being incubated with secondary antibodies diluted in Intercept®Blocking Buffer TBS for 1 h at room temperature with gentle agitation. Finally, the membranes were washed three times for 5 min with TBS-T and then scanned using an Odyssey®CLx imaging system (Li-Cor).

[4] = molecular target: Akt1 (Homo sapiens, UniProt P31749); assay: Cellular thermal shift assay (CETSA) in PANC1 cells; format: cell-based; parameters: purchased ProQinase #1379-0000-2
Procedure: (§2) Cells were seeded into 100 mm tissue culture plates (Sarstedt) (PANC1: 10^6 cells). After 24 h incubation, cells were treated with 1 µM of inhibitors or DMSO and were incubated for 4.5 h. Cells were washed twice with ice-cold PBS and then suspended in 1 mL PBS. Cells were collected and separated into equal volumes (100 µL). The aliquots were treated individually with different temperatures for 3 min, followed by a 3 min incubation at room temperature. Cell lysis was initiated by adding 100 µL RIPA buffer and 2 freeze-thaw cycles in liquid nitrogen. The lysates were centrifuged at 21,130×g for 20 min at room temperature. The supernatants were transferred into fresh, pre-cooled microcentrifuge tubes, and analyzed by western blot analysis as described above.

[5] = molecular target: Akt3 (Homo sapiens, UniProt Q9Y243); assay: as above; format: cell-based; parameters: purchased ProQinase #1578-0000-1
Procedure: as §2

[6] = CETSA PANC1, 1 µM, temperature 39.9
[7] = CETSA PANC1, 1 µM, temperature 43.5
[8] = CETSA PANC1, 1 µM, temperature 48.4
[9] = CETSA PANC1, 1 µM, temperature 53.8
[10] = CETSA PANC1, 1 µM, temperature 58.1
[11] = CETSA PANC1, 1 µM, temperature 61.4
[12] = CETSA PANC1, 1 µM, temperature 65.6
[13] = CETSA PANC1, 1 µM, temperature 70.9
[14] = CETSA PANC1, 1 µM, temperature 76
[15] = CETSA PANC1, 1 µM, temperature 79.9
[16] = CETSA PANC1, 2.5 µM, temperature 39.9
[17] = CETSA PANC1, 2.5 µM, temperature 43.5
[18] = CETSA PANC1, 2.5 µM, temperature 48.4
[19] = CETSA PANC1, 2.5 µM, temperature 53.8
[20] = CETSA PANC1, 2.5 µM, temperature 58.1
[21] = CETSA PANC1, 2.5 µM, temperature 61.4
[22] = CETSA PANC1, 2.5 µM, temperature 65.6
[23] = CETSA PANC1, 2.5 µM, temperature 70.9
[24] = CETSA PANC1, 2.5 µM, temperature 76
[25] = CETSA PANC1, 2.5 µM, temperature 79.9

Sequence of Akt3 (Q9Y243 whole entry): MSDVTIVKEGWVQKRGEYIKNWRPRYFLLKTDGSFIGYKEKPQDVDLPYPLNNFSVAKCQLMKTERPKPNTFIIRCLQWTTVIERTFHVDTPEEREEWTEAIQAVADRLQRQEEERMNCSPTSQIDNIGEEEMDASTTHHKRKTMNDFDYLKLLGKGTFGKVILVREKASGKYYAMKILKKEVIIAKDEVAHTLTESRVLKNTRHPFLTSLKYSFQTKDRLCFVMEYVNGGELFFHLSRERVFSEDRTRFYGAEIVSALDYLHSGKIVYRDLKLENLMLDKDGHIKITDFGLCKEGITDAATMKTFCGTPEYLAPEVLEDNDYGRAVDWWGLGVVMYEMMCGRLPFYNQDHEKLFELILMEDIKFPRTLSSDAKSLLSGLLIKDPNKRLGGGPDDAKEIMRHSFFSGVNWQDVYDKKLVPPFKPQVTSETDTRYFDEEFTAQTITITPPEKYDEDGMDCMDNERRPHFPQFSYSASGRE
Sequence of Akt1 (P31749 whole entry): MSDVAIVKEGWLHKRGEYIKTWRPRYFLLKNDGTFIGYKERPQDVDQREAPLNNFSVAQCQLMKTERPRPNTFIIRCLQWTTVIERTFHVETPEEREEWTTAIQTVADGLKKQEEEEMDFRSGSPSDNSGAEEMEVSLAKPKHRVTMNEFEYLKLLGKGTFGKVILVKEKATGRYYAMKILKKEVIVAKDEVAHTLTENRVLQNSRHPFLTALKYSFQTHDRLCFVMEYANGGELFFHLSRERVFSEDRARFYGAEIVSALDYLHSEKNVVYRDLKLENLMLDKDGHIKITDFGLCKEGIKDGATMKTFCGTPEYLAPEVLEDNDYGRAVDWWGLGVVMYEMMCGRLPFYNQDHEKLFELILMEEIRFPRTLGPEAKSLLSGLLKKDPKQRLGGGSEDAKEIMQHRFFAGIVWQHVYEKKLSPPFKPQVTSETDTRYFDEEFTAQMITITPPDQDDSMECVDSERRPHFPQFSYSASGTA

Question: What does the source list for C=CC(=O)Nc1ccc2[nH]c(=O)n(C3CCN(Cc4ccc(-c5ncc(Cc6ccc(N)nc6)cc5-c5ccccc5)cc4)CC3)c2c1 [compound 20]?
Answer: viability at 3 days, 0.0001 µM ([1]; 0.1 nM, read-out: cell viability): 104%; viability at 3 days, 5 µM ([1]; 5000 nM): 83.7%; cell viability ([2]; 0.1 nM, single replicates, 0.0001 µM): 98.4 % of control and 93.0 % of control; cell viability ([2]; 5000 nM, single replicates, 5 µM): 87.1 % of control and 85.4 % of control; EC50 ([2]; Mus musculus, BaF3, parental cells, mean of replicates, read-out: CTG BaF3, Mean): 12.1 µM; EC50 ([2]; Mus musculus, BaF3, parental cells, single replicates, read-out: CTG BaF3, individual determinations): 9.75 µM; EC50 ([2]; parental cells, single replicates, read-out: CTG BaF3, individual determinations): 9.72 µM and 18.6 µM; pAkt2 level (immunoblot) [3]: moderate downregulation of pAkt2; tAkt1 % [4, 6]: 100.00%; tAkt1 % [4, 7]: 45.86%; tAkt1 % [4, 8]: 43.98%; tAkt1 % [4, 9]: 34.21%; tAkt1 % [4, 10]: 23.05%; tAkt1 % [4, 11]: 19.70%; tAkt1 % [4, 12]: 13.05%; tAkt1 % [4, 13]: 3.12%; tAkt1 % [4, 14]: 1.54%; tAkt1 % [4, 15]: 0.00%; tAkt1 % [4, 16]: 100.00%; tAkt1 % [4, 17]: 55.35%; tAkt1 % [4, 18]: 36.29%; tAkt1 % [4, 19]: 40.13%; tAkt1 % [4, 20]: 29.31%; tAkt1 % [4, 21]: 31.38%; tAkt1 % [4, 22]: 3.90%; tAkt1 % [4, 23]: -1.89%; tAkt1 % [4, 24]: 0.94%; tAkt1 % [4, 25]: 0.00%; tAkt3 % [5, 6]: 100.00%; tAkt3 % [5, 7]: 71.95%; tAkt3 % [5, 8]: 46.73%; tAkt3 % [5, 9]: 49.56%; tAkt3 % [5, 10]: 48.14%; tAkt3 % [5, 11]: 35.11%; tAkt3 % [5, 12]: 25.19%; tAkt3 % [5, 13]: 2.44%; tAkt3 % [5, 14]: 2.83%; tAkt3 % [5, 15]: 0.00%; tAkt3 % [5, 16]: 100.00%; tAkt3 % [5, 17]: 103.86%; tAkt3 % [5, 18]: 83.57%; tAkt3 % [5, 19]: 72.46%; tAkt3 % [5, 20]: 73.91%; tAkt3 % [5, 21]: 50.24%; tAkt3 % [5, 22]: 22.85%; tAkt3 % [5, 23]: 8.02%; tAkt3 % [5, 24]: 2.05%; tAkt3 % [5, 25]: 0.00%; thermal stabilization of Akt3 (CETSA, in words) ([5]; PANC1, 1 µM): slight stabilization of Akt3; thermal stabilization of Akt3 (CETSA, in words) ([5]; PANC1, 2.5 µM): significant stabilization of Akt2 and Akt3
